Test results: patent US4772684A, “Peptides affecting blood pressure regulation” (Triton Biosciences, Inc., priority 1988, dated 1988)
Blank lines part the entries; values can stand above or below the compound they belong to. Non-standard residues stand in square brackets, D forms with d. Residues, ends and D or L forms follow the SMILES beside them.

Experiments:
angiotensin II receptors = experiment: Inhibition of radiolabeled angiotensin II binding to isolated hepatic receptor; parameters: species or system rabbit; details: for ID50 (concentration of peptide that inhibited binding of radiolabeled angiotensin II by 50%): 0.25 nM [125I]angiotensin II, partially purified solubilized rabbit liver receptor, 60 minutes at 20° C.
Experimental: Inhibition of angiotensin II binding to angiotensin II receptors by peptides of this invention was measured through the use of radioactive angiotensin II. Rabbit livers were homogenized and centrifuged in order to isolate particles sedimenting between 1,000 and 100,000×g. A portion of the particles which binds angiotensin II was solubilized with 1% digitonin, followed by ammonium sulfate fractionation between 49 and 65% saturation, followed by DEAE-cellulose chromatography at pH 7.5 using a linear gradient between 0.0 and 0.3 M KCl. The partially purified, solubilized receptor preparation bound 17 pmoles of angiotensin II per mg of protein when analyzed by Scatchard analysis, indicating a purity of approximately 0.1%.
The assay for binding of angiotensin II to the receptor was as follows: The complete system (150 μl) contained 30 mM Tris-HCl, pH 7.5, 2.5 mM K2 EDTA, 0.2 mM PCMS, 0.25 nM [^125 I]angiotensin II (ca. 100,000 cpm), 100 μg BSA, 0.25% (v/v) Brij 99 (a polyoxyethylene ether of a fatty alcohol) and 30 μg of partially purified receptor. The reaction was initiated by addition of the receptor and samples were incubated for 60 minutes at 20° C. The reaction was terminated with 1 ml of cold 0.5% charcoal/0.05% dextran in 100 mM Tris-HCl, pH 7.5. Tubes were vortexed and then allowed to stand 10 minutes at 4° C., after which they were centrifuged and their supernatants, containing protein-bound angiotensin II, were counted.
The complete system under these conditions regularly yields about 10,000 cpm of bound radioactivity. […] A sample including 20 nM cold angiotensin II was also run. Residual binding of radioactivity in this control was 35-45%. Certain peptides of this invention were dissolved in water, except for Peptide 5, which was dissolved in 3% DMSO, 0.04 M acetic acid, and 0.05 M HCl in water.

[1] = system: isolated rabbit aorta strips; experiment: Contractile response of isolated arterial smooth muscle strips in muscle bath; assay type: cell-based; details: cumulative addition
Experimental: (§1) The peptides of this invention were tested in vitro, using an assay of isolated rabbit aorta strips mounted in a muscle bath.
(§2) The left anterior descending coronary artery was excised from the heart and cut helically into a strip under a dissecting microscope. Strips were mounted vertically on a glass holder in a tissue bath containing 50 ml of PSS. The upper end of each strip was connected to a force transducer. The bathing medium was maintained at 37° C. and aerated with a mixture of 95% O2 -5% CO2. The pH of the PSS was 7.2 and the composition, in mmoles/l, was as follows: NaCl 130, KCl 14.7, KH2 PO4 1.18, MgSO4 7H2 O 1.17, CaCl2 -2H2 O 1.6, […] 14.9, dextrose 5.5, and CaNa2 EDTA 0.03. In all experiments, the passive force on each strip was adjusted to 2,000 mg.
In one set of experiments, peptides were tested for ability to stimulate contractile response. Peptide was added to the bath in a step-wise, cumulative manner. Three peptides were tested: angiotensin II., Peptide 2 and Peptide 5. Muscle strips from between 2 and 6 rabbits were used to test each peptide.

[2] = system: AII-stimulated contraction of isolated rabbit aorta strips; experiment: Peptide effect on AII-stimulated contraction of arterial muscle strips; assay type: cell-based; details: AII 10^-9 M
Experimental: as §1
as §2, with “Strips” for “The left anterior descending coronary artery was excised from the heart and cut helically into a strip under a dissecting microscope. Strips”
In another set of experiments, the ability of peptides to increase or decrease contraction caused by angiotensin II was measured.
The muscle strips were bathed in PSS containing AII, 10^-9 M. Strips were allowed to contract until a steady-state contraction was reached (^~8 minutes), then peptide was added in a step-wise. cumulative manner. The change in muscle strip contraction was measured after each addition of peptide, and more peptide was not added until contraction had stabilized from the previous peptide addition (10-15 minutes). Each peptide was tested in strips from 2 or 4 rabbits.
A positive value indicates increased contraction, while a negative value represents a decreased contractile response.

dog femoral vein = experiment: Angiotensin II-caused relaxation of isolated dog venous strips; assay type: cell-based; details: angiotensin II 3×10^-7 M
Experimental: Peptide 2 of this invention was tested in vitro, using an assay of isolated dog venous strips mounted in a muscle bath. Isolated segments of the dog femoral vein (n=2) were mounted in organ baths for measurement of isometric force generation. The conditions were as described in Example 3. The vascular segments were made to contract in response to prostaglandin F2a (8.5×10^-7 M). After the contraction reached a plateau, angiotensin II (3×10^-7 M) was added to the organ bath and the venous segments relaxed to approximately 50% of the response to prostaglandin F2a. This relaxation response to angiotensin II was inhibited 100% by saralasin ([…]) and by Peptide 2 (10^-5 M).

rat hypertension model = experiment: Blood pressure in anesthetized rats (rat hypertension model); assay type: in vivo
Experimental: Peptide 2 of this invention was tested in vivo, using a rat hypertension model. Adult male rats (n=4) were anesthetized with sodium pentobarbital (50 mg/kg) and the left jugular vein was cannulated for infusion of drugs. Bolus injections of angiotensin II were delivered via the same venous catheter. The right carotid artery was cannulated for measurement of blood pressure. Injection of angiotensin II (1 ng) caused an increase in mean arterial blood pressure (^~ 50 mm Hg).

[3] = system: isolated rabbit aorta strips; experiment: Saralasin block of AII contraction and peptide-stimulated contraction in muscle strips; assay type: cell-based; details: saralasin 10^-8 M; AII 10^-9 M

Compound: CC(C)[C@H](NC(=O)[C@H](C)NC(=O)[C@H](Cc1ccc(O)cc1)NC(=O)[C@@H](NC(=O)[C@H](CC(=O)O)NC(=O)[C@@H](NC(=O)CNC(=O)[C@@H](N)CCCCN)C(C)C)C(C)C)C(=O)O [Peptide 1, NH2 - LYS-GLY-VAL-ASP-VAL-TYR-ALA-VAL-COOH] (H-KGVDVYAV-OH)
- ID50 (concentration of peptide that inhibited binding of radiolabeled angiotensin II by 50%) (angiotensin II receptors): 4,000 nM

Compound: CC[C@H](C)[C@H](NC(=O)[C@H](Cc1ccc(O)cc1)NC(=O)[C@@H](NC(=O)CNC(=O)[C@@H](N)CCCCN)C(C)C)C(=O)N[C@@H](Cc1c[nH]cn1)C(=O)N[C@@H](C)C(=O)N[C@@H](CC(C)C)C(=O)O [Peptide 2, NH2LYSGLYVALTYRILEHISALALEUCOOH] (H-KGVYIHAL-OH)
- ID50 (concentration of peptide that inhibited binding of radiolabeled angiotensin II by 50%) (angiotensin II receptors): 8 to 14 nM
- Average Baseline Response ([1]; 3 × 10^-7 M): 0 mg
- Average Baseline Response ([1]; 3 × 10^-8 M): 0 mg
- Average Baseline Response ([1]; 3 × 10^-9 M): 0 mg
- Average Baseline Response ([1]; 3 × 10^-10 M): 0 mg
- Average Baseline Response ([1]; 10^-6 M): 0 mg
- Average Baseline Response ([1]; 10^-7 M): 0 mg
- Average Baseline Response ([1]; 10^-8 M): 0 mg
- Average Baseline Response ([1]; 10^-9 M): 0 mg
- % Change from AII Response ([2]; peptide 3 × 10^-5 M): -73%
- % Change from AII Response ([2]; peptide 3 × 10^-6 M): 0%
- % Change from AII Response ([2]; peptide 10^-4 M): -83%
- % Change from AII Response ([2]; peptide 10^-5 M): -18%
- % Change from AII Response ([2]; peptide 10^-6 M): 0%
- Inhibition of relaxation response to angiotensin II (dog femoral vein; 10^-5 M): 100%
- Effect on baseline blood pressure (rat hypertension model; infusion 0.1 to 0.5 mg/min): did not alter baseline blood pressure
- Effect on pressor responses to angiotensin II (rat hypertension model; infusion 0.1 to 0.5 mg/min, angiotensin II 1 ng): did not influence pressor responses to angiotensin II

Compound: CSCC[C@H](NC(=O)[C@H](CC(=O)O)NC(=O)[C@@H](NC(=O)CNC(=O)[C@@H](N)CCCCN)C(C)C)C(=O)N[C@@H](Cc1c[nH]cn1)C(=O)N[C@@H](C)C(=O)N[C@@H](CC(C)C)C(=O)O [Peptide 3, NH2LYSGLYVALASPMETHISALALEUCOOH] (H-KGVDMHAL-OH)
- ID50 (concentration of peptide that inhibited binding of radiolabeled angiotensin II by 50%) (angiotensin II receptors): 5,000 nM

Compound: CC[C@H](C)[C@H](NC(=O)[C@H](Cc1ccc(O)cc1)NC(=O)[C@@H](NC(=O)CNC(=O)[C@@H](N)CCCCN)C(C)C)C(=O)N[C@@H](Cc1c[nH]cn1)C(=O)N[C@@H](C)C(=O)N[C@@H](CC(C)C)C(N)=O [Peptide 7, NH2LYSGLYVALTYRILEHISALALEUCONH2] (H-KGVYIHAL-NH2)
- ID50 (concentration of peptide that inhibited binding of radiolabeled angiotensin II by 50%) (angiotensin II receptors): 40 to 160 nM

Compound: CNCC(=O)N[C@@H](CCCN=C(N)N)C(=O)N[C@H](C(=O)N[C@@H](Cc1ccc(O)cc1)C(=O)N[C@H](C(=O)N[C@@H](Cc1cnc[nH]1)C(=O)N1CCC[C@H]1C(=O)N[C@@H](C)C(=O)O)C(C)C)C(C)C [saralasin]
- Effect on AII contraction [3]: decreased AII contraction
- Inhibition of relaxation response to angiotensin II (dog femoral vein; 10^6 M (so in the source)): 100%
- Effect on pressor activity of angiotensin II (rat hypertension model; constant infusion 1 mg/min, angiotensin II 1 ng): inhibited the pressor activity of angiotensin II

Now from value to compound, other results behind:

- ID50 (concentration of peptide that inhibited binding of radiolabeled angiotensin II by 50%) (angiotensin II receptors): 2,400-3,100 nM
Compound: CC[C@H](C)[C@H](NC(=O)[C@H](Cc1ccc(O)cc1)NC(=O)[C@@H](NC(=O)CNC(=O)[C@H](CCCCN)NC(C)=O)C(C)C)C(=O)N[C@@H](Cc1c[nH]cn1)C(=O)N[C@@H](C)C(=O)N[C@@H](CC(C)C)C(N)=O [Peptide 9] (Ac-KGVYIHAL-NH2)

- ID50 (concentration of peptide that inhibited binding of radiolabeled angiotensin II by 50%) (angiotensin II receptors): > 10,000 nM
Compound: CC[C@@H](C)[C@@H](NC(=O)[C@@H](Cc1ccc(O)cc1)NC(=O)[C@H](NC(=O)CNC(=O)[C@H](N)CCCCN)C(C)C)C(=O)N[C@H](Cc1c[nH]cn1)C(=O)N[C@H](C)C(=O)N[C@H](CC(C)C)C(=O)O [Peptide 11, NH2LYSGLYVALTYRILEHISALALEUCOOH] (H-[dK]G[dV][dY][dI][dH][dA][dL]-OH)
- % Change from AII Response ([2]; peptide 3 × 10^-5 M): -7%
- % Change from AII Response ([2]; peptide 3 × 10^-6 M): -3%
- % Change from AII Response ([2]; peptide 10^-4 M): -33%
- % Change from AII Response ([2]; peptide 10^-5 M): -5%
- % Change from AII Response ([2]; peptide 10^-6 M): 0%

- ID50 (concentration of peptide that inhibited binding of radiolabeled angiotensin II by 50%) (angiotensin II receptors): 5,000 nM
Compound: CC(C)[C@H](NC(=O)[C@@H]1CCCN1C(=O)[C@H](Cc1c[nH]cn1)NC(=O)[C@@H](NC(=O)[C@H](CC(=O)O)NC(=O)[C@@H](NC(=O)CNC(=O)[C@@H](N)CCC(N)=O)C(C)C)C(C)C)C(=O)O [Peptide 12, NH2GLNGLYVALASPVALHISPROVALCOOH] (H-QGVDVHPV-OH)

- ID50 (concentration of peptide that inhibited binding of radiolabeled angiotensin II by 50%) (angiotensin II receptors): 6 nM
Compound: CSCC[C@H](NC(=O)[C@H](Cc1ccc(O)cc1)NC(=O)[C@@H](NC(=O)CNC(=O)[C@@H](N)CCCCN)C(C)C)C(=O)N[C@@H](Cc1c[nH]cn1)C(=O)N[C@@H](CO)C(=O)N[C@@H](CC(C)C)C(=O)O [Peptide 13, NH2LYSGLYVALTYRMETHISSERLEUCOOH] (H-KGVYMHSL-OH)

- ID50 (concentration of peptide that inhibited binding of radiolabeled angiotensin II by 50%) (angiotensin II receptors): 12 to 15 nM
- Residual binding of radioactivity (angiotensin II receptors; 20 nM cold angiotensin II): 35-45%
Compound: Angiotensin II (DRVYIHPF; Angiotensin-2; UniProt P01019 25-32, looked up) [an octapeptide formed from angiotensin I by angiotensin converting enzyme; causes blood vessel constriction, reference compound]
- Average Baseline Response ([1]; 3 × 10^-8 M): 2,613 mg
- Average Baseline Response ([1]; 3 × 10^-9 M): 2,332 mg
- Average Baseline Response ([1]; 3 × 10^-10 M): 991 mg
- Average Baseline Response ([1]; 3 × 10^-11 M): 0 mg
- Average Baseline Response ([1]; 10^-8 M): 2,562 mg
- Average Baseline Response ([1]; 10^-9 M): 1,726 mg
- Average Baseline Response ([1]; 10^-10 M): 0 mg
- Average Baseline Response ([1]; 10^-11 M): 0 mg
- Relaxation of venous segments, as % of the response to prostaglandin F2a (dog femoral vein; prostaglandin F2a 8.5×10^-7 M): approximately 50%
- Increase in mean arterial blood pressure (rat hypertension model; bolus injection 1 ng, jugular vein, anesthetized rats): ~ 50 mm Hg
